In PMC9071444 (Nucleic Acids Research, 2022):
“Also recorded” adds a separate entry of the source. Like-named read-outs stand apart in the source and are kept apart here.

What was measured:
[1] = system: TBEV-5; format: binding, tick-borne encephalitis virus
[2] = system: RNA G4 derived from the Nipah virus and ZIKV genomes; settings: cited from earlier work
[3] = system: PS cells
[4] = system: TBEV-5; format: binding, tick-borne encephalitis virus; remark: listed apart in the source
[5] = system: TBEV-5; format: binding, tick-borne encephalitis virus; remark: listed apart in the source
[6] = system: Japanese encephalitis virus RdRp; format: biochemical
[7] = system: TBEV-5; format: binding, tick-borne encephalitis virus; remark: listed apart in the source
[8] = system: SuperScript IV reverse transcriptase; format: biochemical
[9] = system: TBEV strain Neudoerfl; experiment: microbe, parasite or virus in culture; settings: Tick-borne encephalitis virus, 48 h
[10] = system: TBEV strain Hypr
[11] = system: TBEV strain Hypr; experiment: microbe, parasite or virus in culture; settings: Tick-borne encephalitis virus, 48 h
[12] = system: TBEV strains Neudoerfl and Hypr; experiment: microbe, parasite or virus in culture; format: cell-based, tick-borne encephalitis virus; settings: for EC50: read-out: EC50
[13] = system: TBEV strain Neudoerfl
[14] = in vitro; settings: pig
[15] = system: ZIKV virus; settings: 100 μM; cited from earlier work
[16] = system: TBEV strain Hypr; format: cell-based, tick-borne encephalitis virus
[17] = system: TBEV strain Neudoerfl; format: cell-based, tick-borne encephalitis virus
[18] = system: TBEV strain Hypr; format: cell-based, tick-borne encephalitis virus; remark: listed apart in the source
[19] = system: Viral genome RNA from the TBEV strain Hypr; format: cell-based, tick-borne encephalitis virus
[20] = system: SuperScript IV reverse transcriptase; format: biochemical; remark: listed apart in the source
[21] = system: TBEV strains Neudoerfl and Hypr; format: cell-based, tick-borne encephalitis virus
[22] = system: ZIKV; settings: cited from earlier work
[23] = system: ZIKV NS2B-NS3 protease; settings: cited from earlier work
[24] = system: HCV RdRp; settings: cited from earlier work
[25] = target: Japanese encephalitis virus RdRp (Japanese encephalitis virus, UniProt P32886); format: biochemical
Japanese encephalitis virus RdRp (Japanese encephalitis virus, UniProt P32886), sequence (P32886 2528-3432 limits assumed): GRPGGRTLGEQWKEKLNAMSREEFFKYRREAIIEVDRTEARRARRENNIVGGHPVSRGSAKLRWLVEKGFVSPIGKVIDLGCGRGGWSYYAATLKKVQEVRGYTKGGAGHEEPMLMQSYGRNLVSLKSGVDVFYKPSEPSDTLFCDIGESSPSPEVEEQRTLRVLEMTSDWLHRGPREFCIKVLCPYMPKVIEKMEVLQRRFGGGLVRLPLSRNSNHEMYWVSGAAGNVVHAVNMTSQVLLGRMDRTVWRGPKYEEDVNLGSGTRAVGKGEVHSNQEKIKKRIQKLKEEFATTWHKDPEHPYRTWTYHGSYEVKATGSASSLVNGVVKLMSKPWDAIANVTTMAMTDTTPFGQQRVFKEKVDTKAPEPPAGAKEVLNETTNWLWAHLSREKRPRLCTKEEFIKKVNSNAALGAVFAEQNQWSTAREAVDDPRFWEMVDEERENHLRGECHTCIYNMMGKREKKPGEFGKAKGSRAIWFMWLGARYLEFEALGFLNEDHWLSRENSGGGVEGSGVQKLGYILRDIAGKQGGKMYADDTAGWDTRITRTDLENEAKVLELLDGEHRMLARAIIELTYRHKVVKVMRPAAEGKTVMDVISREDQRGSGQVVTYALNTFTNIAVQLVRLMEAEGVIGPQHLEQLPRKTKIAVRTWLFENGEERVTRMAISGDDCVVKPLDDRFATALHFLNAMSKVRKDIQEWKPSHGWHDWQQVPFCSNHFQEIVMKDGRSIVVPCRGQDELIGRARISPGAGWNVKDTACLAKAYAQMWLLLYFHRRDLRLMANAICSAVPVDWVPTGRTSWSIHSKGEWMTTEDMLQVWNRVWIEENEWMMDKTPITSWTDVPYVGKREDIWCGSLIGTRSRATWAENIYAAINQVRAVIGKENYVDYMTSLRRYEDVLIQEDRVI

[26] = Tick-borne encephalitis virus, 48 h

Molecule	CC50 [3] [µM]	G4 specificity of binding (titration curves with TBEV-5 versus TBEV-5mut) [4]	RdRp activity relative to no-ligand control [6] [%]	Increase in Tm of TBEV-5 G4 [7]	SI (CC50/EC50) [10]	SI (CC50/EC50) [13]	EC50 [10] [µM]	EC50 [13] [µM]	Phase of the viral replication cycle in which the antiviral action takes effect [16]	Inhibition of RT [20]	Course of anti-TBEV activity over time [12]	further results
5,10,15,20-tetrakis-(N-methyl-4-pyridyl)porphine [TMPyP4]	> 50	bind non-specifically	< 10	strong distortion of melting curves								Change of CD at 263 nm of TBEV-5 [1]: most pronounced; Interaction with RNA G4 [2]: specifically interact; Binding of TBEV-5 (concentration for 50% TBEV-5 saturation) [4]: best binder; Displacement of the probe (TO or ThT) [5]: ~100%; Full product of reverse transcription relative to no-ligand control [8]: inhibits reverse transcriptase
O=C1c2cccc(O)c2C(=O)c2c(O)cc(CO)cc21 [Aloe emodin, aloe-emodin]				strong distortion of melting curves	>1	>1						EC50 [9]: > 50 µM; EC50 [11]: > 50 µM; Displacement of ThT [5]: did not significantly displace; Virus inhibition in initial screening [12]: no virus inhibition effects; CC50 [14]: > 50 µM
CN(C)c1ccc(Nc2c3ccc(NC(=O)CCN4CCCC4)cc3nc3cc(NC(=O)CCN4CCCC4)ccc23)cc1 [BRACO-19]	> 50			strong distortion of melting curves	>1	>1	> 50	> 50				Interaction with RNA G4 [2]: specifically interact; Virus inhibition in initial screening [12]: no virus inhibition effects; Effect on ZIKV virus titers [15]: decrease ZIKV virus titers
COc1ccc2cc3[n+](cc2c1OC)CCc1cc2c(cc1-3)OCO2 [Berberin, berberine]		specifically bind G4		up to 3.5 °C					post-entry/fusion phase	did not inhibit RT	stable over time	EC50 [9]: 1.26 µM; Reduction of numbers of viral RNA copies [17]: ~25%; Reduction of numbers of viral RNA copies [18]: about 40%; Suppression of infectious viral particle formation [19]: partial; EC50 [11]: 1.57 µM; Displacement of TO [5]: did not displace; Displacement of ThT [5]: around 50%; EC50 [12, 26]: 1.2 to 2.9 µM; Full product of reverse transcription relative to no-ligand control [8]: does not inhibit RT; CC50 [14]: > 50 µM
CN(C)c1ccc(C(=C2C=CC(=[N+](C)C)C=C2)c2ccc(N(C)C)cc2)cc1 [CV, crystal violet]												CC50 ([3]; pig): < 1.6 µM
Cc1cnc(CNC(=O)c2c(=O)c3ccc(N4CCCN(C)CC4)nc3n3c2sc2ccccc23)cn1 [CX5461]												Antiviral effect at the lowest non-cytotoxic concentration [10]: ^eNo antiviral effect was observed at the lowest non-cytotoxic concentration of 5 μM.; CC50 ([3]; pig): 14.1 µM; Antiviral effect at the lowest non-cytotoxic concentration [13]: ^eNo antiviral effect was observed at the lowest non-cytotoxic concentration of 5 μM.
CCC1=C(C)c2cc3[nH]c(cc4nc(cc5c(CCC(=O)O)c(C)c(cc1n2)n5C)C(CCC(=O)O)=C4C)c(C)c3CC [NMM, N-Methylmesoporphyrin IX]	> 50	specifically bind G4		up to 3.5 °C	>2 500	>5000	0.02	0.01	prior to the entry/fusion steps	did not inhibit RT	stable over time	Effect on viral RNA copies [21]: complete inhibition of RNA synthesis; Viable viral particle formation [19]: no viable viral particle formation; Cell morphology and monolayer cohesion [3]: observable changes in cell morphology and in mechanical monolayer cohesion; Concentration that completely suppressed TBEV replication [12]: 1.6 µM; Full product of reverse transcription relative to no-ligand control [8]: inhibits reverse transcriptase
NCCOc1cc(C(=O)Nc2cc(OCCN)c3ccccc3n2)nc(C(=O)Nc2cc(OCCN)c3ccccc3n2)c1 [PDS, Pyridostatin]			< 10						post-entry/fusion phase	strong inhibitory effect	stable over time	EC50 [9]: 2.94 µM; Phase of ZIKV cycle affected [22]: replication period rather than entry; Suppression of infectious viral particle formation [19]: partial; also recorded: complete; EC50 [11]: 1.29 µM; EC50 [12, 26]: 1.2 to 2.9 µM; Effect on ZIKV NS2B-NS3 protease [23]: reduces its catalytic activity; CC50 [14]: > 50 µM
C[n+]1cc(NC(=O)c2ccc3ccc4ccc(C(=O)Nc5cc6ccccc6[n+](C)c5)nc4c3n2)cc2ccccc21 [PhenDC3]	> 50		< 10	strong distortion of melting curves	>8.08	>8.66	5.68	5.77	post-entry/fusion phase	strong inhibitory effect	gradually disappeared or dropped significantly	Change of CD at 263 nm of TBEV-5 [1]: most pronounced; Effect on HCV RdRp [24]: no significant effect; Displacement of the probe (TO or ThT) [5]: ~100%; EC50 [12]: ~5 µM; Inhibition of RdRp activity [25]: almost completely inhibits
CN1C(=Cc2cc[n+](C)c3ccccc23)Sc2ccccc21 [TO, thiazole orange]	1.8	bind non-specifically		strong distortion of melting curves								Change of CD at 263 nm of TBEV-5 [1]: most pronounced; Displacement of ThT [5]: almost entirely displaces
Cc1ccc2c(c1)sc(-c1ccc(N(C)C)cc1)[n+]2C [ThT, thioflavin T]		specifically bind G4		up to 3.5 °C								Antiviral effect at the lowest non-cytotoxic concentration [10]: ^eNo antiviral effect was observed at the lowest non-cytotoxic concentration of 5 μM.; CC50 ([3]; pig): 10.6 µM; Displacement of TO [5]: does not displace; Antiviral effect at the lowest non-cytotoxic concentration [13]: ^eNo antiviral effect was observed at the lowest non-cytotoxic concentration of 5 μM.
NCCOc1cc(NC(=O)c2cc(OCc3cn(CCC(=O)O)nn3)cc(C(=O)Nc3cc(OCCN)c4ccccc4n3)n2)nc2ccccc12 [cPDS, Carboxy pyridostatin]	> 50		< 10	strong distortion of melting curves	>9.05	>11.23	5.52	4.45	post-entry/fusion phase		gradually disappeared or dropped significantly	EC50 [12]: ~5 µM
